Experimental data taken from the supplement of paper PMC10307832.

What was measured:
Assay in all cases: relative viability (nuclei count vs DMSO), 5 days (fraction); higher = more cells survive
Bortezomib + Lapatinib = compound: CC(C)C[C@H](NC(=O)[C@H](Cc1ccccc1)NC(=O)c1cnccn1)B(O)O [Bortezomib] + CS(=O)(=O)CCNCc1ccc(-c2ccc3ncnc(Nc4ccc(OCc5cccc(F)c5)c(Cl)c4)c3c2)o1 [Lapatinib] (partner 2 µM)
Method in brief: (§1)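 Lung cancer cell lines were pin-tool dosed in 1536-well plates on the day after seeding, with either a lone drug or a fixed anchor-drug dose plus five library-drug doses (not always all listed) in √10 steps. Nuclei were counted on 4× images after 5 days. Relative viability is the ratio of treated-well to vehicle-well nuclei counts, with each value a median of duplicate plates.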

[1] = compound: CC1=CC(=NN1)NC2=CC(=NC(=N2)/C=C/C3=CC=CC=C3)N4CCN(CC4)C + N=C(N)NC(=N)NCCc1ccccc1 [Phenformin] (partner 250 µM)
Method in brief: as §1

[2] = compound: CC1=CC(=NN1)NC2=CC(=NC(=N2)/C=C/C3=CC=CC=C3)N4CCN(CC4)C + COc1cc2c(Oc3ccc(NC(=O)C4(C(=O)Nc5ccc(F)cc5)CC4)cc3F)ccnc2cc1OCCCN1CCOCC1 [Foretinib] (partner 0.25 µM)
Method in brief: as §1

Obatoclax + Bortezomib = compound: COC1=CC(c2cc3ccccc3[nH]2)=N/C1=C\c1[nH]c(C)cc1C [Obatoclax] + CC(C)C[C@H](NC(=O)[C@H](Cc1ccccc1)NC(=O)c1cnccn1)B(O)O [Bortezomib] (partner 0.002 µM)
Method in brief: as §1

| Cell Line | relative viability (Bortezomib + Lapatinib; first compound 0.002 µM) | relative viability (Bortezomib + Lapatinib; first compound 0.006325 µM) | relative viability (Bortezomib + Lapatinib; first compound 0.02 µM) | relative viability ([1]; first compound 0.08 µM) | relative viability ([1]; first compound 0.253 µM) | relative viability ([1]; first compound 0.8 µM) | relative viability ([1]; first compound 2.53 µM) | relative viability ([1]; first compound 8 µM) | relative viability ([2]; first compound 0.08 µM) | relative viability ([2]; first compound 0.253 µM) | relative viability ([2]; first compound 0.8 µM) | relative viability ([2]; first compound 2.53 µM) | relative viability ([2]; first compound 8 µM) | relative viability (Obatoclax + Bortezomib; first compound 0.01 µM) | relative viability (Obatoclax + Bortezomib; first compound 0.03162 µM) | relative viability (Obatoclax + Bortezomib; first compound 0.1 µM) | relative viability (Obatoclax + Bortezomib; first compound 0.3162 µM) | relative viability (Obatoclax + Bortezomib; first compound 1 µM) | relative viability (Bortezomib + Lapatinib; first compound 0.0002 µM) | relative viability (Bortezomib + Lapatinib; first compound 0.000632 µM) |
| --- | --- | --- | --- | --- | --- | --- | --- | --- | --- | --- | --- | --- | --- | --- | --- | --- | --- | --- | --- | --- |
| EPLC-272H | 1.03 | 0.671 | 0.167 | 0.315 | 0.24 | 0.258 | 0.147 | 0.135 | 0.639 | 0.708 | 0.4 | 0.171 | 0.0935 | 0.833 | 0.88 | 1.05 | 0.864 | 0.894 |  |  |
| UMC-11 | 0.837 | 0.375 | 0.149 | 0.348 | 0.289 | 0.279 | 0.137 | 0.131 | 1.06 | 0.908 | 0.466 | 0.17 | 0.13 | 0.645 | 0.428 | 0.689 | 0.743 | 0.265 | 0.813 | 0.846 |
| HCC-827 | 0.187 | 0.222 | 0.15 | 0.39 | 0.402 | 0.435 | 0.401 | 0.216 | 1.08 | 1.02 | 0.993 | 0.581 | 0.239 | 0.928 | 0.861 | 0.821 | 0.855 | 1.04 | 0.217 | 0.183 |
| NCI-H1993 | 0.935 | 0.51 | 0.497 | 0.462 | 0.492 | 0.427 | 0.498 | 0.437 | 0.754 | 0.911 | 0.763 | 0.594 | 0.447 | 1.2 | 1.05 | 1.22 | 1.2 | 1.2 | 0.69 | 0.77 |
| NCI-H647 | 0.711 | 0.0371 | 0.0208 | 0.481 | 0.634 | 0.47 | 0.0675 | 0.0451 | 1.14 | 1.23 | 1.27 | 0.8 | 0.104 | 0.902 | 0.853 | 0.541 | 0.351 | 0.143 | 1.05 | 1.05 |
| NCI-H460 | 1.03 | 0.0212 | 0.014 | 0.552 | 0.597 | 0.514 | 0.0212 | 0.0183 | 1 | 1.1 | 1.04 | 0.477 | 0.0228 | 1.01 | 1.19 | 0.945 | 0.0492 | 0.0392 | 0.879 | 0.975 |
| EMC-BAC-2 | 0.966 | 0.652 | 0.153 | 0.511 | 0.559 | 0.432 | 0.228 | 0.0995 | 0.957 | 1.04 | 0.936 | 0.534 | 0.234 | 1.15 | 1.04 | 1.03 | 1.1 | 1.16 | 0.902 | 0.923 |
| NCI-H23 | 1.06 | 0.156 | 0.135 | 0.793 | 0.887 | 0.711 | 0.247 | 0.204 | 0.699 | 0.987 | 0.712 | 0.256 | 0.147 | 1.03 | 0.873 | 1.13 | 0.804 | 0.762 |  | 0.866 |
| A-427 | 1.11 | 1.02 | 0.19 | 0.347 | 0.21 | 0.282 | 0.121 | 0.0986 | 0.993 | 1.06 | 0.993 | 0.586 | 0.142 | 1.02 | 0.966 | 1.01 | 1.01 | 0.944 | 1.05 | 0.975 |
| ABC-1 | 0.605 | 0.606 | 0.495 | 0.199 | 0.192 | 0.26 | 0.234 | 0.187 | 1.01 | 1.13 | 0.956 | 0.195 | 0.228 | 0.323 | 0.134 | 0.23 | 0.323 | 0.212 | 0.941 | 1.06 |
| NCI-H322M | 0.523 | 0.541 | 0.393 | 0.759 | 0.852 | 0.688 | 0.31 | 0.218 | 0.947 | 1.03 | 0.934 | 0.363 | 0.239 | 1.13 | 1.21 | 1.41 | 1.16 | 1.34 | 0.573 |  |
| COR-L23 | 0.771 | 0.0607 | 0.0542 | 0.45 | 0.479 | 0.414 | 0.0934 | 0.0951 | 0.967 | 1.01 | 0.904 | 0.211 | 0.107 | 0.962 | 1 | 0.961 | 0.461 | 0.187 | 0.814 | 1.1 |
| NCI-H2085 | 0.727 | 0.382 | 0.231 | 0.653 | 0.769 | 0.679 | 0.279 | 0.236 | 0.972 | 1.04 | 0.842 | 0.552 | 0.227 | 1.06 | 1.1 | 0.93 | 0.88 | 0.427 | 0.725 | 0.759 |
| NCI-H2087 | 0.541 | 0.114 | 0.0853 | 0.536 | 0.318 | 0.488 | 0.105 | 0.1 | 1.05 | 1.14 | 1.02 | 0.336 | 0.111 | 0.645 | 0.775 | 0.665 | 0.779 | 0.335 | 0.897 | 0.951 |
| HCC-366 | 1.03 | 0.875 | 0.0176 | 0.63 | 0.7 | 0.62 | 0.189 | 0.0317 | 0.942 | 1.04 | 0.472 | 0.0589 | 0.0265 | 1.06 | 1 | 1.08 | 0.88 | 1.04 | 0.861 | 1.01 |
| NCI-H2126 | 0.762 | 0.727 | 0.595 | 0.518 | 0.557 | 0.525 | 0.365 | 0.227 | 1.06 | 1.09 | 1.19 | 1.03 | 0.587 | 1.13 | 1.04 | 1.09 | 1.12 | 1.07 | 0.762 | 0.757 |
